Earlier results, collected in patent US20220193127A1, “IMMUNOTHERAPY FOR OPIOID ADDICTION” (Therapeutic Solutions International, Inc., priority 2020, published 2022).

Experiments:
[1] = test system: dentate gyrus of the hippocampus
[2] = test system: microglial cells; details: for development of neuropathic pain: in vivo; for microglial activation / proinflammatory cytokines: neuropathic pain
[3] = rats fed for 6 weeks with liquid diet containing moderate doses of ethanol, vs paired controls

SMILES | neurogenesis within the olfactory bulb ([1]; rat model of alcoholism) | decrease in the number of new neurons in the dentate gyrus [1, 3] | increase in cell death in the dentate gyrus [1, 3] | development of neuropathic pain [2] | microglial activation [2] | proinflammatory cytokines [2]
CCO [ethanol] | not affected | 66.3% | 227-279% |  |  | 
O=C(O)CC(O)(C(=O)O)C(F)C(=O)O (stereo not drawn) [fluorocitrate] |  |  |  | suppressing | decrease | inhibit
CC(=O)CCCCn1c(=O)c2c(ncn2C)n(C)c1=O [pentoxifylline] |  |  |  | suppressing | decrease | inhibit
CCCn1cnc2c1c(=O)n(CCCCC(C)=O)c(=O)n2C [propentofylline] |  |  |  | suppressing | decrease | inhibit
